The target of one experiment is HER-2 (Homo sapiens, UniProt P04626). In words: Kinase inhibition HER-2. The experiment is classed as biochemical.
Another experiment has as its target Flt-4 (Homo sapiens, UniProt P35916). The experiment can be described thus: Kinase inhibition Flt-4. The experiment is classed as biochemical.
For a further experiment, the target named is c-Kit (Homo sapiens, UniProt P10721). The experiment can be described thus: Kinase inhibition c-Kit. Format: biochemical.
The next experiment concerns the target PDGFR-β (Homo sapiens, UniProt P09619). The experiment can be described thus: Kinase inhibition PDGFR-β. Format: biochemical.
The test system of a further experiment is P19 cells. The experiment can be described thus: Neuronal differentiation in P19 cell monolayers (morphology, immunostaining with neuronal markers). The settings on record: 1 μM. Format: cell-based.
A further experiment addresses Flt-1 (Homo sapiens, UniProt P17948). The experiment can be described thus: Kinase inhibition Flt-1. Format: biochemical.
In experiment [1] the test system is GSK-3β/β-catenin signaling. In words: GSK-3β/β-catenin-dependent signaling, TCF/LEF (pTOPFLASH) luciferase reporter in P19 cells. Format: cell-based. The note with it: 10 μM, 36 hours. As for the experimental part:
P19 cells are co-transfected with pTOPFLASH (containing four consensus LEF-1/TCF-1 binding sites, a minimal promoter and a firefly luciferase reporter) and renilla luciferase control reporter (Promega). […] Thirty-six hours later, cells are lysed and protein extracts are assayed for luciferase activity. The fold induction offirefly luciferase activity is normalized to renilla luciferase activity. The normalized activities are averaged over three experiments.
(In general: A reporter such as luciferase makes a cellular process visible.)

The target of the next experiment is HER-1 (Homo sapiens, UniProt P00533). The experiment can be described thus: Kinase inhibition HER-1. The experiment is classed as biochemical.
Another experiment deals with c-Abl (Homo sapiens, UniProt P00519). The experiment can be described thus: Kinase inhibition c-Abl. Format: biochemical.
The target in a further experiment is c-src (Homo sapiens, UniProt P12931). The experiment can be described thus: Kinase inhibition c-src. Format: biochemical.
A further experiment deals with Tek (Homo sapiens, UniProt Q02763). The experiment can be described thus: Kinase inhibition Tek. The experiment is classed as biochemical.
The next experiment concerns the target KDR (Homo sapiens, UniProt P35968). In words: Kinase inhibition KDR. Format: biochemical.

The inhibition is the share of the control response that was lost under treatment. A low value points to a response near the control. As a reminder, the IC50 is the concentration needed to halve the response being measured.

Structures are written as SMILES.

Sequence of c-Abl (P00519 whole entry): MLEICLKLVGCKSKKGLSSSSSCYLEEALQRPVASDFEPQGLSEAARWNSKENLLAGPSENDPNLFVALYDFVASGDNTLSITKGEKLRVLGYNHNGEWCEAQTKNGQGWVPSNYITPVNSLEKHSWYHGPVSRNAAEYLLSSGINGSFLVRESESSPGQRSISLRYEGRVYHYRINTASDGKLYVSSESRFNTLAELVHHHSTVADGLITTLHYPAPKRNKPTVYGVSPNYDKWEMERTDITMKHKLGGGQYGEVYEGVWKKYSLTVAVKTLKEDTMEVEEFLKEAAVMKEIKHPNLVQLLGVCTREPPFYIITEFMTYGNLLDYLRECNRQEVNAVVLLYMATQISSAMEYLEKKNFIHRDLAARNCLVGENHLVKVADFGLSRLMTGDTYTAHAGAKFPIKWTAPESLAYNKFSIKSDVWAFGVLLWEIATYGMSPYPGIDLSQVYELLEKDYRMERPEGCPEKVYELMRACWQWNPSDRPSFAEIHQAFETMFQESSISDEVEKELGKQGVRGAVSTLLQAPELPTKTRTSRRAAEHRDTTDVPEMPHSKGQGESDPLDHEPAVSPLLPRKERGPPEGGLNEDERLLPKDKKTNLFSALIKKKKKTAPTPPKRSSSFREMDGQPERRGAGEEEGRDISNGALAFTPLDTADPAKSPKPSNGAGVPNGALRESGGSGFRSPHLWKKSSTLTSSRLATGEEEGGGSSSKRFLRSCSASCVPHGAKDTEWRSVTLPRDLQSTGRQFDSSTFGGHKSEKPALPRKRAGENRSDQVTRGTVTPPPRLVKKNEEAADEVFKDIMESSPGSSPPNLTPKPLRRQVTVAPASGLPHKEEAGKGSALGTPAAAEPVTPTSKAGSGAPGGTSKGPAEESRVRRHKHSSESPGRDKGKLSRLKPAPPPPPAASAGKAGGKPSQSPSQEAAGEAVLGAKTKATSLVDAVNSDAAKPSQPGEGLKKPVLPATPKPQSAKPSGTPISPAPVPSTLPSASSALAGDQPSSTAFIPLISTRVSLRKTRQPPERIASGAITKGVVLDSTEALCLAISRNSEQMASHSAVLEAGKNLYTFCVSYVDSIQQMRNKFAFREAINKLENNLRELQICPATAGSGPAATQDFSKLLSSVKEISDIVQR
Sequence of c-Kit (P10721 26-976): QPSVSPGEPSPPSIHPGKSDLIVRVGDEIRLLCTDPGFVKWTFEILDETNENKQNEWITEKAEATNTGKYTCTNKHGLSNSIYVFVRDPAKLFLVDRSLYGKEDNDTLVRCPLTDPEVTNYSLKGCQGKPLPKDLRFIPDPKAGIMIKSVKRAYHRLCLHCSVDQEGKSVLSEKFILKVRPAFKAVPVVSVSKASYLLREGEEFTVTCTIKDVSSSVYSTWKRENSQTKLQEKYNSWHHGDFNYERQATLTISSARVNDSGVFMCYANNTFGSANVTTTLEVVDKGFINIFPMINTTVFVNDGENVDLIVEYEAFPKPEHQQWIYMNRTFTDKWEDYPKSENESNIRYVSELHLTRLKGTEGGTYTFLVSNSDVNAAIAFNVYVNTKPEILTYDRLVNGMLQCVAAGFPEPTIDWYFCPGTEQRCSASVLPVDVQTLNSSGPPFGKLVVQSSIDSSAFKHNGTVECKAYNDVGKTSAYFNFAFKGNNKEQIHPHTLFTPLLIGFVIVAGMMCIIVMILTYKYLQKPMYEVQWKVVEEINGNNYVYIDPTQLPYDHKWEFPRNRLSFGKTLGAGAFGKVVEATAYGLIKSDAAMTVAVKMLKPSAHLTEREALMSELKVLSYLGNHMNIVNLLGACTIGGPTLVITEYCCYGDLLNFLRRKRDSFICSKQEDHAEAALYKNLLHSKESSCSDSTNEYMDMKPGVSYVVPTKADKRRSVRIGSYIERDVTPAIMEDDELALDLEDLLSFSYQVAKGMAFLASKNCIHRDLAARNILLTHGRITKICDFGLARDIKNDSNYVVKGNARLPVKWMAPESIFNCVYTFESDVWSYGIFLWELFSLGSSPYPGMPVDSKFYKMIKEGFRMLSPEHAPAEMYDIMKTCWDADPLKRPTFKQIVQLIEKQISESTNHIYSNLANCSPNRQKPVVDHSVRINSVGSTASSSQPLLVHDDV
Sequence of HER-2 (P04626 23-1255, species assumed): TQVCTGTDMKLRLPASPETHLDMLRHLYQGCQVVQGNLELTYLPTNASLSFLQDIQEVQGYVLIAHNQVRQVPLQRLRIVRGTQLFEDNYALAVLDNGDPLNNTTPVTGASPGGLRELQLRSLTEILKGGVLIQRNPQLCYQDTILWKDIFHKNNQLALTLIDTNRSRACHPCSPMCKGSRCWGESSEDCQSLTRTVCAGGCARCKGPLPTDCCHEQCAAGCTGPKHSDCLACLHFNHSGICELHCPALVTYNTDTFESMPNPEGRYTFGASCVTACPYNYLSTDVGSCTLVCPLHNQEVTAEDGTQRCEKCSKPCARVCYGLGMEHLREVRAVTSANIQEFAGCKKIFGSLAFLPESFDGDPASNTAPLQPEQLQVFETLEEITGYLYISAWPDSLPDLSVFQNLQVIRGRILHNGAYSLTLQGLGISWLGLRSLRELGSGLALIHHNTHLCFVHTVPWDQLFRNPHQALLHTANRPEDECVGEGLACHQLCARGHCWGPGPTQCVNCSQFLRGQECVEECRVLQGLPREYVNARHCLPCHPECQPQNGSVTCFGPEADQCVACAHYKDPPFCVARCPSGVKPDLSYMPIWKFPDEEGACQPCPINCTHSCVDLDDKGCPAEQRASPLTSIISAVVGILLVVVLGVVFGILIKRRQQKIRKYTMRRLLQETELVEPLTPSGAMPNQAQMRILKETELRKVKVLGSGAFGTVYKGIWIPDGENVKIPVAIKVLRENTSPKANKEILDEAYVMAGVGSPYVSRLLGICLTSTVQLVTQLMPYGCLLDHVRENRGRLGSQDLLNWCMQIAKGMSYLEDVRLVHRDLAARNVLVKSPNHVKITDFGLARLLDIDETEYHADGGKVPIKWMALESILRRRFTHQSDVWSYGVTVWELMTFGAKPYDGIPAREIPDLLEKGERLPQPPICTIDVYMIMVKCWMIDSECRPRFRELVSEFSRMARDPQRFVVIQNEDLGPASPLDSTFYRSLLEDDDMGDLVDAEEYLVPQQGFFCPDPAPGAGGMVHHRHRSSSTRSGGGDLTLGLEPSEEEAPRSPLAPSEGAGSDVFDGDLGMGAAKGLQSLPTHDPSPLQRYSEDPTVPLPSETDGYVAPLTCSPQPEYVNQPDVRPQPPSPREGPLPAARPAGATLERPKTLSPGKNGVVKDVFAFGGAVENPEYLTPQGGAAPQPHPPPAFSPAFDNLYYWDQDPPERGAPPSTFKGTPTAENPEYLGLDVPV
Sequence of KDR (P35968 20-1356, species assumed): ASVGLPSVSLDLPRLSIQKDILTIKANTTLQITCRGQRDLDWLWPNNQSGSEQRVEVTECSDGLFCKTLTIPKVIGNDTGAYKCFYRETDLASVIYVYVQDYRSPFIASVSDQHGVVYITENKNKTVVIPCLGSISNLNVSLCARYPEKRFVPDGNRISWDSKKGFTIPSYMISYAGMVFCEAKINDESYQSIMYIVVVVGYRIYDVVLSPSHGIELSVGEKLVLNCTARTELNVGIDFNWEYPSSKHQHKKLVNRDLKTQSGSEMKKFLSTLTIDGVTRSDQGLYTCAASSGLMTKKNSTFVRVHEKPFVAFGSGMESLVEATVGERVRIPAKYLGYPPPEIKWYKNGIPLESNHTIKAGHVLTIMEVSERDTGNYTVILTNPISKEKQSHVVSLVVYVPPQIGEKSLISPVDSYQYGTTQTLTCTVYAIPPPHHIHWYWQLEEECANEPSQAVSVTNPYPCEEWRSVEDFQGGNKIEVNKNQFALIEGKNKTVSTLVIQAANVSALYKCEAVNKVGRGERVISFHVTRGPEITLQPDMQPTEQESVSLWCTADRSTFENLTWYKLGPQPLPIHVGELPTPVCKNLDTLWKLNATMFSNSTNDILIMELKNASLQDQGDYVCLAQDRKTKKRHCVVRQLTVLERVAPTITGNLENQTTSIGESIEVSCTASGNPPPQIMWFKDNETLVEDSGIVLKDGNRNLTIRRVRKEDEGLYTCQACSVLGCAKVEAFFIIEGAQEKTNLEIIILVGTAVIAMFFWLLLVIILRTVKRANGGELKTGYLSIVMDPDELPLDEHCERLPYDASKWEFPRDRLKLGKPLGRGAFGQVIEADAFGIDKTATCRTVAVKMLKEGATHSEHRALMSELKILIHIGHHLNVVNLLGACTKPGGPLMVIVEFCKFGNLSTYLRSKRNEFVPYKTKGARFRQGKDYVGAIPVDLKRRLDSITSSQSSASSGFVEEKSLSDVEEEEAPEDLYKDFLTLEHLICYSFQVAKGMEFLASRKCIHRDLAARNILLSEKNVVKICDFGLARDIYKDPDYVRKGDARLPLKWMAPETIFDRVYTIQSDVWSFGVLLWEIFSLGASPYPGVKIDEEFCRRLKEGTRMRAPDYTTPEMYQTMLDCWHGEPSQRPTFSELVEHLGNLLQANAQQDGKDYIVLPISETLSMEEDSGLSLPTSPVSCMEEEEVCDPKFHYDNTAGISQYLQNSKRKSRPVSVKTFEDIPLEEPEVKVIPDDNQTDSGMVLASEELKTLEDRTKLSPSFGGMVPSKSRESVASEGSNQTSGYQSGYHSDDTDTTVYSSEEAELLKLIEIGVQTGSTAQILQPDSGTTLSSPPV

With `Nc1cccc(-c2cc3c(Oc4cccc(O)c4)ncnc3[nH]2)c1` [Example 1, 3-[6-(3-Amino-phenyl)-7H-pyrrolo[2,3-d]pyrimidin-4-yloxy]-phenol], the inhibition at 10 µM on HER-2 (10 μM), against Flt-4, against c-Kit (10 μM), at PDGFR-β, on Flt-1 and against HER-1 was 100% in each case. Moreover, the inhibition at 10 µM on c-Abl (10 μM), at c-src, against Tek and at KDR was 100% in each case. Moreover, the values for the IC50 on HER-2 (read-out: IC50 against HER-2), at c-Kit (read-out: IC50 against c-Kit) and at c-Abl (read-out: IC50 against c-Abl) were 30 nM, 20 nM and 4.5 nM, respectively. Further, the “differentiation of P19 cells into glial and muscle cells” value with P19 cells was “not detected”. In the experiment on P19 cells, the “nestin immunostaining of the remaining cells (neuronal progenitor cells)” value is “immunostained positively for nestin”. Moreover, in the experiment with P19 cells (monolayers of P19 cells, neuronal morphology and immunostaining with neuronal specific markers), the “cells differentiating specifically into neuronal lineages” value is 30-40%. For the same molecule, the “increase in β-catenin induced TCF/LEF reporter activity” value in experiment [1] is listed as “eleven”.

For the origin of these results see patent US7253166B2, “6-phenyl-7H-pyrrolo[2,3-d]pyrimidine compounds that induce neuronal differentiation in embryonic stem cells” (IRM LLC, priority 2003, dated 2007).
